Measured values as given in the supplement of paper PMC11208160.

Assay: recombinant UMI read abundance after kanamycin selection (control-corrected) (log10(CPM+1)); higher = more efficient recombination; extreme values may be limits of the assay; sequences stand for … in AGTGCAGAGAAAATCGGCCAGTTTTCTCTGCCTGCAGTCCGCATGCCGTGGGACCCCTTGGGTTCTAACCTGTTGCCTAGATTTATGCAGCGGACTGCCTTTCTCCCAAAGTGATAAACCGG…AGGTTGGTTTCACT; site = the 11-nt donor
In short: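 For the IS621 bridge recombinase, a pooled Escherichia coli screen tested donor and donor-binding-loop pairs. Cells received the pair library together with a target plasmid encoding a fixed target and T7-inducible recombinase, then went onto IPTG (0.07 mM) plus kanamycin or unselected plates in duplicate. After PCR across the donor–target junction and sequencing, recombinant UMI counts were normalized to CPM, averaged, and scaled by control-derived factors. Each value is given as log10(CPM+1).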
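Also: IS621 bridge recombinase in Escherichia coli cells against a fixed T5 target plasmid.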

Sequence | recombinant UMI read abundance (log10)
TGGACACCATGGACCGGTTTTCCCGGTAATCCGTATTTGAC (site TGAACACCTGT) | 0
TGGACACCATGGACCGGTTTTCCCGGTAATCCGTATTTGAC (site TGCACACCTGT) | 0
TGGACACCATGGACCGGTTTTCCCGGTAATCCGTATTTGAC (site TGGACACCTGT) | 0
TGGACACCATGGACCGGTTTTCCCGGTAATCCGTATTTGAC (site TGTACACCTGT) | 0
TGGAGTGCATGGACCGGTTTTCCCGGTAATCCGTATTTGAC (site TGGAGTGCTGT) | 2.21
TGGATACCATGGACCGGTTTTCCCGGTAATCCGTATTTGTT (site TGGATACCTAA) | 0
TGGATGACATGGACCGGTTTTCCCGGTAATCCGTATTTGCA (site AGGAAGACTTG) | 0.54
TGGATGACATGGACCGGTTTTCCCGGTAATCCGTATTTGCA (site TGGATGACTTG) | 2.44
TGGATGTCATGGACCGGTTTTCCCGGTAATCCGTATTTGAA (site TGGATGTCTTT) | 2.11
TGGCAAGCATGGACCGGTTTTCCCGGTAATCCGTATTTGTC (site TGGCAAGCTGA) | 0
TGGCCCGCATGGACCGGTTTTCCCGGTAATCCGTATTTGGC (site TGGCCAGCTGC) | 0
TGGCCCGCATGGACCGGTTTTCCCGGTAATCCGTATTTGGC (site TGGCCCGCTGC) | 0.649
TGGCCCGCATGGACCGGTTTTCCCGGTAATCCGTATTTGGC (site TGGCCGGCTGC) | 0
TGGCCCGCATGGACCGGTTTTCCCGGTAATCCGTATTTGGC (site TGGCCTGCTGC) | 0
TGGCCGACATGGACCGGTTTTCCCGGTAATCCGTATTTGGG (site TGGCCGACTCC) | 0
TGGCCGCCATGGACCGGTTTTCCCGGTAATCCGTATTTGGC (site TGGCCGACTGC) | 0.0204
TGGCCGCCATGGACCGGTTTTCCCGGTAATCCGTATTTGGC (site TGGCCGCCTGC) | 0
TGGCCGCCATGGACCGGTTTTCCCGGTAATCCGTATTTGGC (site TGGCCGGCTGC) | 0
TGGCCGCCATGGACCGGTTTTCCCGGTAATCCGTATTTGGC (site TGGCCGTCTGC) | 0
TGGCCGGCATGGACCGGTTTTCCCGGTAATCCGTATTTGGC (site AGGCCGGCTGC) | 0
TGGCCGGCATGGACCGGTTTTCCCGGTAATCCGTATTTGGC (site CGGCCGGCTGC) | 0
TGGCCGGCATGGACCGGTTTTCCCGGTAATCCGTATTTGGC (site GGGCCGGCTGC) | 0
TGGCCGGCATGGACCGGTTTTCCCGGTAATCCGTATTTGGC (site TAGCCGGCTGC) | 0

Sequence | recombinant UMI read abundance (log10)
TGGCCGGCATGGACCGGTTTTCCCGGTAATCCGTATTTGGC (site TCGCCGGCTGC) | 0
TGGCCGGCATGGACCGGTTTTCCCGGTAATCCGTATTTGGC (site TGACCGGCTGC) | 0
TGGCCGGCATGGACCGGTTTTCCCGGTAATCCGTATTTGGC (site TGCCCGGCTGC) | 0
TGGCCGGCATGGACCGGTTTTCCCGGTAATCCGTATTTGGC (site TGGACGGCTGC) | 0
TGGCCGGCATGGACCGGTTTTCCCGGTAATCCGTATTTGGC (site TGGCAGGCTGC) | 0
TGGCCGGCATGGACCGGTTTTCCCGGTAATCCGTATTTGGC (site TGGCCAGCTGC) | 0
TGGCCGGCATGGACCGGTTTTCCCGGTAATCCGTATTTGGC (site TGGCCCGCTGC) | 0
TGGCCGGCATGGACCGGTTTTCCCGGTAATCCGTATTTGGC (site TGGCCGACTGC) | 0
TGGCCGGCATGGACCGGTTTTCCCGGTAATCCGTATTTGGC (site TGGCCGCCTGC) | 0
TGGCCGGCATGGACCGGTTTTCCCGGTAATCCGTATTTGGC (site TGGCCGGCTAC) | 0.0414
TGGCCGGCATGGACCGGTTTTCCCGGTAATCCGTATTTGGC (site TGGCCGGCTCC) | 0.0175
TGGCCGGCATGGACCGGTTTTCCCGGTAATCCGTATTTGGC (site TGGCCGGCTGA) | 0
TGGCCGGCATGGACCGGTTTTCCCGGTAATCCGTATTTGGC (site TGGCCGGCTGC) | 0.862
TGGCCGGCATGGACCGGTTTTCCCGGTAATCCGTATTTGGC (site TGGCCGGCTGG) | 0
TGGCCGGCATGGACCGGTTTTCCCGGTAATCCGTATTTGGC (site TGGCCGGCTGT) | 0
TGGCCGGCATGGACCGGTTTTCCCGGTAATCCGTATTTGGC (site TGGCCGGCTTC) | 0.00718
TGGCCGGCATGGACCGGTTTTCCCGGTAATCCGTATTTGGC (site TGGCCGTCTGC) | 0
TGGCCGGCATGGACCGGTTTTCCCGGTAATCCGTATTTGGC (site TGGCCTGCTGC) | 0
TGGCCGGCATGGACCGGTTTTCCCGGTAATCCGTATTTGGC (site TGGCGGGCTGC) | 0
TGGCCGGCATGGACCGGTTTTCCCGGTAATCCGTATTTGGC (site TGGCTGGCTGC) | 0
TGGCCGGCATGGACCGGTTTTCCCGGTAATCCGTATTTGGC (site TGGGCGGCTGC) | 0
TGGCCGGCATGGACCGGTTTTCCCGGTAATCCGTATTTGGC (site TGGTCGGCTGC) | 0.00844
TGGCCGGCATGGACCGGTTTTCCCGGTAATCCGTATTTGGC (site TGTCCGGCTGC) | 0

Sequence | recombinant UMI read abundance (log10)
TGGCCGGCATGGACCGGTTTTCCCGGTAATCCGTATTTGGC (site TTGCCGGCTGC) | 0.00854
TGGCCGTCATGGACCGGTTTTCCCGGTAATCCGTATTTGAG (site TGGCCGTCTCT) | 0.297
TGGCCTGCATGGACCGGTTTTCCCGGTAATCCGTATTTGGC (site TGGCCAGCTGC) | 0
TGGCCTGCATGGACCGGTTTTCCCGGTAATCCGTATTTGGC (site TGGCCCGCTGC) | 0
TGGCCTGCATGGACCGGTTTTCCCGGTAATCCGTATTTGGC (site TGGCCGGCTGC) | 0
TGGCCTGCATGGACCGGTTTTCCCGGTAATCCGTATTTGGC (site TGGCCTGCTGC) | 0
TGGCTAGCATGGACCGGTTTTCCCGGTAATCCGTATTTGAA (site TAGCTAGCTTT) | 0.00919
TGGCTAGCATGGACCGGTTTTCCCGGTAATCCGTATTTGAA (site TCGCTAGCTTT) | 0.0168
TGGCTAGCATGGACCGGTTTTCCCGGTAATCCGTATTTGAA (site TGGCTAGCTTT) | 1.06
TGGCTAGCATGGACCGGTTTTCCCGGTAATCCGTATTTGAA (site TTGCTAGCTTT) | 0.00374
TGGCTCTCATGGACCGGTTTTCCCGGTAATCCGTATTTGCA (site TGGCTCTCTTG) | 1.86
TGGGAACCATGGACCGGTTTTCCCGGTAATCCGTATTTGAT (site AGGGAACCTAT) | 0
TGGGAACCATGGACCGGTTTTCCCGGTAATCCGTATTTGAT (site CGGGAACCTAT) | 0.00502
TGGGAACCATGGACCGGTTTTCCCGGTAATCCGTATTTGAT (site GGGGAACCTAT) | 0
TGGGAACCATGGACCGGTTTTCCCGGTAATCCGTATTTGAT (site TGGGAACCTAT) | 0.00982
TGGTCCACATGGACCGGTTTTCCCGGTAATCCGTATTTGTC (site TGGTCCACTGA) | 0.323
TGGTCCCCATGGACCGGTTTTCCCGGTAATCCGTATTTGTA (site TGATCCCCTTA) | 0
TGGTCCCCATGGACCGGTTTTCCCGGTAATCCGTATTTGTA (site TGCTCCCCTTA) | 0.176
TGGTCCCCATGGACCGGTTTTCCCGGTAATCCGTATTTGTA (site TGGTCCCCTTA) | 0.0183
TGGTCCCCATGGACCGGTTTTCCCGGTAATCCGTATTTGTA (site TGTTCCCCTTA) | 0.00825
TGGTGCACATGGACCGGTTTTCCCGGTAATCCGTATTTGCC (site TGGTGCACTGG) | 1.75
TGGTTCCCATGGACCGGTTTTCCCGGTAATCCGTATTTGTG (site AGGTTCCCTCA) | 0.0205
